Laboratory results taken from paper PMC3652196, “Pharmacometrics of 3-Methoxypterostilbene: A Component of Traditional Chinese Medicinal Plants” (Evidence-based Complementary and Alternative Medicine : eCAM, 2013).
“Also recorded” adds a separate entry of the source.

Experiments:
[1] = computer model; cited from earlier work
[2] = system: crown-gall; parameters: method as in PMID 3598597; settings: cited from earlier work
[3] = target: T1, α-amylase from porcine pancreas type VI-B (Sus scrofa, UniProt P00690); assay: α-Amylase inhibition colorimetric assay (BPNPG7, amylase HR reagent); assay type: biochemical
T1 construct: α-amylase from porcine pancreas type VI-B; purchased Sigma-Aldrich; host or cells: porcine pancreas
T1 sequence (P00690 16-511): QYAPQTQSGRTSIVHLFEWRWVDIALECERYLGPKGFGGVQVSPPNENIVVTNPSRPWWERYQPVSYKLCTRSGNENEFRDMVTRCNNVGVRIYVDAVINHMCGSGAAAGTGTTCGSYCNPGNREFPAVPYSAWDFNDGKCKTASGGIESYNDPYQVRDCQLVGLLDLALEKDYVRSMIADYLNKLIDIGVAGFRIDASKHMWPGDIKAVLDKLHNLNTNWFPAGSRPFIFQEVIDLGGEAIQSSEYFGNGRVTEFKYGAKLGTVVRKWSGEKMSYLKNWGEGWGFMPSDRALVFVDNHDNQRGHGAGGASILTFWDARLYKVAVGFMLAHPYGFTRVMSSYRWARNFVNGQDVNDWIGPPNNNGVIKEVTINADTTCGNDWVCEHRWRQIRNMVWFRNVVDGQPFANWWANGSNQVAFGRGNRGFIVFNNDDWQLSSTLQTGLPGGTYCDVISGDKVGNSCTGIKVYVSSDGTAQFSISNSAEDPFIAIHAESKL

[4] = target: T2, COX-2 (Homo sapiens, UniProt P35354); assay: COX inhibitor screening assay (EIA of prostaglandins), COX-2; assay type: biochemical
T2 construct: purchased Cayman Chemical 560131
T2 sequence (P35354 18-604): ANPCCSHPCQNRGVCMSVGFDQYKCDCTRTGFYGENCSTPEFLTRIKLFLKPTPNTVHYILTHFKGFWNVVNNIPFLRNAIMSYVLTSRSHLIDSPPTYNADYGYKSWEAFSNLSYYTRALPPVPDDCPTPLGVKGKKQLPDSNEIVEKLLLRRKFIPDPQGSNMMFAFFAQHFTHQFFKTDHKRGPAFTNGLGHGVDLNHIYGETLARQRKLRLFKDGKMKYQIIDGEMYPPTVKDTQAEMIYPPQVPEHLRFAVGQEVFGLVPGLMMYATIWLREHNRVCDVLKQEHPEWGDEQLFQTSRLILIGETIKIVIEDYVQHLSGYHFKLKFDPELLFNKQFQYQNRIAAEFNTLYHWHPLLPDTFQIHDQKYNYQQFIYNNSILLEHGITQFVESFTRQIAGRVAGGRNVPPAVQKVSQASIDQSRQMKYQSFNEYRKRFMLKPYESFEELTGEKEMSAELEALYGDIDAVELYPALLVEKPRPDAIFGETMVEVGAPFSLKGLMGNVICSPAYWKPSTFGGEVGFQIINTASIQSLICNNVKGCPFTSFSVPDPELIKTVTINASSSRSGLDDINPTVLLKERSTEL
Description: (§1) The inhibition of COX-1 and -2 by 3-methoxypterostilbene was measured through the use of a three-day commercial assay kit. The assay relied on the quantification of the prostanoid product based on enzyme immunoassay (EIA), which uses a nonspecific antibody for prostaglandins (PGs). The constant concentration of the PG-AChE-tracer and the varying concentrations of the PGs available to bind to the antiserum is inversely proportional to the concentration of free PGs in the well. For this assay, 3-methoxypterostilbene was dissolved in DMSO over the concentration range of 1–250 μg/mL. Ibuprofen and etodolac, COX-2 preferential NSAIDs, were dissolved in DMSO and used as controls over the concentration range of 1–250 μg/mL. Reagents were prepared according to the manufacturer's instructions that accompanied the kit. The ELISA plate for this purpose was read at an absorbance of 415 nm within 10 minutes at room temperature (23 ± 1°C) using the Synergy HT multiwell plate reader and Gen5 data analysis software (Biotek Instruments Inc., Winooski, VT, USA). The assay was performed in quadruplet. For more information regarding the assay protocol, please refer to the instructions for the kit (COX Inhibitor Screening Assay Kit from Cayman Chemical—Cat. no. 560131).

[5] = system: 9 KB; parameters: method as in PMID 3598597; settings: cited from earlier work
[6] = system: human leukemia-derived HL60 cells; settings: cited from earlier work
[7] = system: human peripheral blood mononuclear cells; settings: cited from earlier work
[8] = target: T3, COX-1 (Ovis aries, UniProt P05979); assay: COX inhibitor screening assay (EIA of prostaglandins), COX-1; assay type: biochemical
T3 construct: purchased Cayman Chemical 560131
T3 sequence (P05979 25-600): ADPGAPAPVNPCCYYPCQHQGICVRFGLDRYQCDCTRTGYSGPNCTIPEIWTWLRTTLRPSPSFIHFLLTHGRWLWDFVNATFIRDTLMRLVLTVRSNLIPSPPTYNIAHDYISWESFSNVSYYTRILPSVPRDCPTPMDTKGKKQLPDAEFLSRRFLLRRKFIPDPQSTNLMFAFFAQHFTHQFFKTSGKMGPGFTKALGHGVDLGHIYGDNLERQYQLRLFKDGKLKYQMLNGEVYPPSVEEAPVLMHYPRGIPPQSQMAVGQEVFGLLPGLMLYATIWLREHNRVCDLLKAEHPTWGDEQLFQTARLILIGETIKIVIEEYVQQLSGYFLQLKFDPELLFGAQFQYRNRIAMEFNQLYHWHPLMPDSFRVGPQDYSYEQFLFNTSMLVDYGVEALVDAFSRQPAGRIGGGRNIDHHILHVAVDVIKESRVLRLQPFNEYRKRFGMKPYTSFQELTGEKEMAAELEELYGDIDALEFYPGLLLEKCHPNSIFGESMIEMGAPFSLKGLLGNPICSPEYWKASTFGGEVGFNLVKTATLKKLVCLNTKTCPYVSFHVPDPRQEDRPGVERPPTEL
Description: as §1

## COc1cc(/C=C/c2ccc(O)c(OC)c2)cc(OC)c1 [3-methoxypterostilbene, trans-3,3′-5-trimethoxy-4′-hydro-xystilbene]
[1]
  Modeled antioxidant potency: greater potency than resveratrol
[2]
  Activity in crown-gall plant antitumor (potato disk) assay compared with piceatannol: significantly greater activity
[3]; 0 to 200 μg/mL, n = 6
  α-Amylase inhibition (in words): relatively weak inhibition of α-amylase
[3]; highest concentrations tested
  α-Amylase activity at the highest concentrations tested (in words): appears to increase activity of α-amylase
[4]; 10 μg/mL
  COX-2 inhibition versus NSAIDs (in words): statistically greater inhibition (P < 0.05) than etodolac at 1 μg/mL and ibuprofen at 250 μg/mL
[4]; 1, 10 and 250 μg/mL
  COX-2 inhibitory activity (in words): moderate inhibition of COX-2
[5]
  Activity in 9 KB cytotoxicity assay compared with piceatannol: significantly greater activity
[6]
  Apoptotic-inducing activity: greater apoptotic-inducing activity than resveratrol
[7]
  Inhibition of lipopolysaccharide-induced tissue factor expression: as effective as resveratrol
[8]; 250 μg/mL, compared with ibuprofen and etodolac
  COX-1 inhibition versus NSAIDs (in words): significantly greater activity (P < 0.05) than the NSAIDs at low doses
[8]; 1, 10 and 250 μg/mL
  COX-1 inhibitory activity (in words): positive concentration-dependent inhibitory activity; also recorded: strong COX-1 inhibition comparable to two NSAIDs
